Measurements as given in US20220183937A1, “METHOD FOR IMPROVING THE PERFORMANCE OF A FRAGRANCE OR A FRAGRANCE MIXTURE” (SYMRISE AG, priority 2019, published 2022).
Structures can show the parent of a compound that is named as a salt.

Assays:
[1] = physchem
[2] = Boiling point of fragrance raw materials
[3] = LogP of fragrance raw materials
[4] = Example 2, fragrances for thermo boost performance, head range 230.1 a 300.0
[5] = Example 1, fragrances for long lasting performance, head range 1.00 a 230.0
[6] = Example 1, fragrances for long lasting performance, head range 1.00 a 3.00
[7] = Example 2, fragrances for thermo boost performance, head range 0.00 a 3.00

Compound	Boiling Point [2, 5]	logP [3]	other results
COC(=O)c1ccccc1N [METHYL ANTHRANILATE (=130085), METHYL ANTHRANILATE]			logP [1]: 2.26; Boiling Point [2, 4]: 263.6 °C
CC(=O)C1CCCC(C)(C)C1 (centres unmarked) [HERBAC]	197.4 °C		
CCCCCC(=O)OC [METHYL CAPROATE]	148.4 °C	2.34	
COC(=O)c1ccccc1 [METHYL BENZOATE]	195.9 °C	1.83	
CC/C=C\CCOC(=O)OC [LEAFOVERT®]	213 °C		logP [3, 6]: 2.47
CCC/C=C/C=O [HEXENAL TRANS-2]	139.2 °C		logP [3, 6]: 1.58
MENTHONE L/ISOMENTHONE D	213 °C		logP [3, 6]: 2.87
CC/C=C\CCOC(C)=O [HEXENYL ACETATE CIS-3]	176.6 °C		
COc1cc(C)ccc1O [METHYL GUAIACOL-4]			Boiling Point [2, 4]: 230.4 °C
CC(=O)c1ccc(C)cc1 [METHYL ACETOPHENONE PARA]	209.7 °C		logP [3, 6]: 2.22
CC/C=C/CC/C=C/CO [NONADIENOL-2,6]			logP [3, 7]: 2.87; Boiling Point [2, 4]: 231.6 °C
CCOc1cc(C=O)ccc1O [ETHYL VANILLIN]			logP [1]: 1.55
CC1=CC(C)C(C=O)CC1 (centres unmarked) [LIGUSTRAL]	200.5 °C		
CC12CCC(C1)C(C)(C)C2O (centres unmarked) [FENCHOL]	210 °C		
CC(=O)OC1CCCCC1 [CYCLOHEXYL ACETATE]	179.4 °C	2.64	
O=CCc1ccccc1	201.5 °C	1.54	
CCc1occc(=O)c1O [ETHYL MALTOL]			logP [3, 7]: 0.3; Boiling Point [2, 4]: 283.4 °C
CCCCCCC(C)=O [OCTANONE-2]	163.6 °C		
CCCCCC1CCCC(=O)O1 (centres unmarked) [DECALACTONE DELTA]			logP [3, 7]: 2.57; Boiling Point [2, 4]: 283.2 °C

Compound	Boiling Point [2, 5]	logP [3]	other results
COc1ccc(C(C)=O)cc1 [ACETANISOLE CRYST., ACETANISOLE]	229.5 °C		
COc1nccnc1C(C)C [ISOPROPYL METHOXYPYRAZINE-2,3]	217.8 °C		
COC(=O)Cc1ccccc1 [METHYL PHENYLACETATE]	215.6 °C		logP [1]: 2.08
O=COCc1ccccc1 [BENZYL FORMATE]	197.8 °C	1.53	
O=Cc1ccccc1 [BE[…], BENZALDEHYDE]	181.2 °C		logP [1]: 1.71
O=COCCc1ccccc1 [PHENYLETHYL FORMATE]	217.3 °C	2.02	
COc1ccc(C)cc1 [CRESYL METHYL ETHER PARA]	170.8 °C		
CC(=O)OCc1ccccc1 [BENZYL ACETATE]	215.6 °C		
CCCC(=O)OCC [ETHYL BUTYRATE]	125.8 °C	1.85	
CCCCCOC(C)=O [AMYL ACETATE N]	148.4 °C		
CC(=O)CCC=C(C)C [METIL-6-HEPTEN-5-ONA-2 SUPRA, METIL-6-HEPTEN-5-ONA-2]	164.4 °C		
CCCCC1CCC(=O)O1 (centres unmarked) [OCTALACTONE GAMMA]			Boiling Point [2, 4]: 248.4 °C
CC(=O)OCCC(C)C [ISOAMYL ACETATE]	134.9 °C	2.26	
c1ccc2[nH]ccc2c1 [INDOLE FF, INDOLE]			logP [1]: 2.05; Boiling Point [2, 4]: 250 °C
CC(=O)OCC=C(C)C [PRENYL ACETATE]	149.2 °C	2.18	
CCCCCCC1CCC(=O)O1 (centres unmarked) [DECALACTONE GAMMA]			logP [3, 7]: 2.57; Boiling Point [2, 4]: 281.7 °C
OCCc1ccccc1 [PHENYLETHYL ALCOHOL BA FREE, PHENYLETHYL ALCOHOL]	224.9 °C	1.57	
CC=Cc1ccc(O)c(OC)c1 [ISOEUGENOL]		2.65	Boiling Point [2, 4]: 270.6 °C
COC(=O)c1ccccc1O [METHYL SALICYLATE PF, METHYL SALICYLATE]		2.6	Boiling Point [2, 4]: 252.2 °C
